# According to article PMC6934184, “Selective DNA-PKcs inhibition extends the therapeutic index of localized radiotherapy and chemotherapy” (The Journal of Clinical Investigation, 2019):
# Target: T1, MUSK (Homo sapiens, UniProt O15146)
# T1 construct: purchased Thermo Fisher Scientific (Life Technologies) SelectScreen
# Experiment: SelectScreen Z'LYTE
# Assay type: biochemical
# Method in brief: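 Percent values come from Thermo SelectScreen profiling of NU5455, combining activity and binding assays. CSF1R was run in Z'LYTE format at Km app ATP, and CAMK1 in Adapta format with ATP listed at 10.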
# T1 sequence (O15146 24-869): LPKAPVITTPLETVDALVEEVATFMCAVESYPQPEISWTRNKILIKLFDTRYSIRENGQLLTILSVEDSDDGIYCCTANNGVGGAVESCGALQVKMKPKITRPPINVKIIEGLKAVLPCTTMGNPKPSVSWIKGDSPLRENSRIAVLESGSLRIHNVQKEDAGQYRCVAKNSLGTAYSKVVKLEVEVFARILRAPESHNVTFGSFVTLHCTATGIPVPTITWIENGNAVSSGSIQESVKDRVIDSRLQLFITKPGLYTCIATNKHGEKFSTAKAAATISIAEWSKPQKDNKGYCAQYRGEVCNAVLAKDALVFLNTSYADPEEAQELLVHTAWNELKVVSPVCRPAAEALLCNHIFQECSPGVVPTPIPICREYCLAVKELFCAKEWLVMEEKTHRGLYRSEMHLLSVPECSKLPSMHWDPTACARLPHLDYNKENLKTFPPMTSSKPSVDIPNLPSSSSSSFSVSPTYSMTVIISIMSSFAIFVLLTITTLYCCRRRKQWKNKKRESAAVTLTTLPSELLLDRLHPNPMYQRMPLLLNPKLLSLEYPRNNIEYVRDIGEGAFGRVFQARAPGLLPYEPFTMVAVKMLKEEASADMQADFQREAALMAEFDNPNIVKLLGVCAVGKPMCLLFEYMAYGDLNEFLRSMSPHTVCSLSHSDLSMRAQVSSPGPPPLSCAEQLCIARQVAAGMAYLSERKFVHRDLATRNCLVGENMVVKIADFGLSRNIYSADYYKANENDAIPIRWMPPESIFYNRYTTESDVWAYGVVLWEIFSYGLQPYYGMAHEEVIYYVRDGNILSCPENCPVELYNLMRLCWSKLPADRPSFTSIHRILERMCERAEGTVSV
smiles,measurement,value
CN(C(=O)CN1CCOCC1)c1ccc2sc3c(-c4cccc5c(=O)cc(N6CC7CCC(C6)O7)oc45)cccc3c2c1 [NU5455],inhibition at 1 µM,10.3%
